Laboratory results from patent publication US7728012B2, “Carboxamide compounds and their use as calpain inhibitors” (Abbott GmbH & Co. KG, priority 2006, dated 2010).

What was measured:
Type in all cases: biochemical
[1] = target: T1, calpain-I isolated from human erythrocytes (Homo sapiens, UniProt P07384); experiment: Calpain I kinetic fluorescence enzyme inhibition assay; conditions: apparent Ki from IC50 by Cheng-Prussoff; average of 2 to 4 dose-effect plots
T1 construct: calpain-I—isolated from human erythrocytes; purchased Calbiochem 208713; host or cells: human erythrocytes (tissue isolate)
T1 sequence (P07384 1-714): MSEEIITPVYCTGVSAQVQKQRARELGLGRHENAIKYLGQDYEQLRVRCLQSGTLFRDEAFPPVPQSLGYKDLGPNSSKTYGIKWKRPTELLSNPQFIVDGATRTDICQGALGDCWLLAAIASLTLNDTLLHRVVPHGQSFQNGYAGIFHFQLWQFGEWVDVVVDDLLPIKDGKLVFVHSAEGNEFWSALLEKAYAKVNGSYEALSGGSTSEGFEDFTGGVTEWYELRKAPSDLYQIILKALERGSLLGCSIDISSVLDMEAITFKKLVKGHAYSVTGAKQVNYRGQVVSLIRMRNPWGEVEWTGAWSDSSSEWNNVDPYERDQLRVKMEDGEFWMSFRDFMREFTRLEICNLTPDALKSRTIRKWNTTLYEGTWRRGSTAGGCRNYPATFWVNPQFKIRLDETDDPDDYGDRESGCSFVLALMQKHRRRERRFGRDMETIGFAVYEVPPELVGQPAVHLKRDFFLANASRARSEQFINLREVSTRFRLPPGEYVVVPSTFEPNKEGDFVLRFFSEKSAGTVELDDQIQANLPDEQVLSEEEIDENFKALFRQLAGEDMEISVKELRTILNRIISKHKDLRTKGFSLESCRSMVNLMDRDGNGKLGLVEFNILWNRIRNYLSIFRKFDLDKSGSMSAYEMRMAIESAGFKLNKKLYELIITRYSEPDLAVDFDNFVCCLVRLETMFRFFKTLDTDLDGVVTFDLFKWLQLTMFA
T1 sequence (P04632 1-268 partner): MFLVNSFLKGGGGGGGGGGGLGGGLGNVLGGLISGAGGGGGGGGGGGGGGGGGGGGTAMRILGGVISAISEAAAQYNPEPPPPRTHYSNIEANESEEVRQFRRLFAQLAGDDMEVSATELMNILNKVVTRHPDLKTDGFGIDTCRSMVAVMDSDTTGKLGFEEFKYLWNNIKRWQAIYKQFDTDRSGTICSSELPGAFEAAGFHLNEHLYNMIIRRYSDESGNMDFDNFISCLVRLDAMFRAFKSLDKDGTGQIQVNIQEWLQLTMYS

[2] = target: T2, recombinant human cathepsin S (Homo sapiens, UniProt P25774); experiment: Cathepsin S kinetic fluorescence enzyme inhibition assay; conditions: selectivity ratio versus calpain I
T2 construct: purchased Calbiochem 219343; host or cells: E. coli
T2 sequence (P25774 115-331): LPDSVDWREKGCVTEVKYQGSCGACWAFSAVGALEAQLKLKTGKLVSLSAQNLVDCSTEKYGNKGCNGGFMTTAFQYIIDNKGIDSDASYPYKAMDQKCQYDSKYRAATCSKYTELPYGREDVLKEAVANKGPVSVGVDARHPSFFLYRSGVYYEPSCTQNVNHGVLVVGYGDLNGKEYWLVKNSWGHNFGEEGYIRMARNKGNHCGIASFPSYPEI
Outline: (§1)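 cat B 0.25 nM + Z-Phe-Arg-AMC 100 μM; cat L 1 nM + Z-Phe-Arg-AMC 2 μM; cat S 0.5 nM (E. coli-expressed) + Z-Val-Val-Arg-AMC 20 μM. 50 mM MES pH 6.0, 2.5 mM L-Cys, RT. Ex 390/em 460, kinetic; Ki app = Cheng-Prusoff from IC50, mean of 2–4 curves.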

[3] = target: T3, cathepsin K activated from recombinant human procathepsin K (Homo sapiens, UniProt P43235); experiment: Cathepsin K kinetic fluorescence enzyme inhibition assay; conditions: selectivity ratio versus calpain I
T3 construct: purchased Calbiochem 342001; host or cells: E. coli
T3 sequence (P43235 115-329): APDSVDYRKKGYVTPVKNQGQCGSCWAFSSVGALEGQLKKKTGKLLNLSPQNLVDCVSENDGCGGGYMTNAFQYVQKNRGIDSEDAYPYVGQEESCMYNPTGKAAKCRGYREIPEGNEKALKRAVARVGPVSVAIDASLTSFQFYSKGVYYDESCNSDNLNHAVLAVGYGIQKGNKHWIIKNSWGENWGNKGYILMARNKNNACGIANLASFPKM
Description: The following solutions and buffers were employed: • HBS (for 40 ml): 800 μl M HEPES; 2.16 ml 100 mM KCl; 4.8 ml 1M NaCl; 3.59 ml 5% glucose; 60 μl μM MgSO4; 400 μl 100 mM Na pyruvate, 28.19 ml water; pH 7.2-7.5. • lysis buffer (for 20 ml): 400 μl M Tris pH 8.2; 2.74 ml 1M NaCl; 520 μl 0.5M EDTA; 2 ml 10% triton X-100; 0.8 ml (=1:25) CompletePlus (1 tablet/2 ml H2O); 200 μl 100 mM Pefabloc; 13.34 ml water, pH 8.2. • TBST (10×) (for 1 l): 100 mM Tris (12.1 g); 1.5M NaCl (87 g); 1% Tween 20 (10 g), adjusted to pH 8. I Enzyme Inhibition In Vitro: • Testing for blockade of the corresponding enzymic activities was carried out by means of kinetic fluorescence assays (excitation 390 nm, emission 460 nm). • Apparent Ki values were calculated from the experimentally determined IC50 values by the Cheng-Prussoff relation assuming a reversible competitive enzyme inhibition. The Km values of the substrates used under the assay conditions indicated above were: 90 μM (Z-Phe-Arg-AMC, cathepsin B), 10 μM (Z-Gly-Pro-Arg-AMC, cathepsin K), 2 μM (Z-Phe-Arg-AMC, cathepsin L), and 30 μM (Z-Val-Val-Arg-AMC, cathepsin S). • The indicated Ki values are averages of the inhibition constants calculated on the basis of 2 to 4 independent dose-effect plots.
The following assays were used: • 1. Calpain I: • 20 nM calpain-I—isolated from human erythrocytes (Calbiochem #208713), 100 μM Suc-Leu-Tyr-AMC (Bachem #1-1355) as substrate in buffer with 62 mM imidazole, 0.3 mM CaCl2, 0.10% CHAPS, 0.05% BSA, 1 mM DTT at pH 7.3 and room temperature. • 2. Cathepsin B: • 0.25 nM cathepsin B—isolated from human liver (Calbiochem #219362), 100 μM Z-Phe-Arg-AMC (Bachem #I-1160) as substrate 50 mM MES, 2 mM EDTA, 0.05% Brij 35, 2.5 mM L-cysteine, pH 6.0, room temperature. • 3. Cathepsin K: • 3 nM cathepsin K—activated from recombinant human procathepsin K from E. coli (Calbiochem #342001), 10 μM Z-Gly-Pro-Arg-AMC (Biomol #P-142) as substrate in 50 mM MES, 2 mM EDTA, 0.05% Brij 35, 2.5 mM L-cysteine, pH 6.0, room temperature. • 4. Cathepsin L: • 1 nM cathepsin L—isolated from human liver (Calbiochem #219402), 2 μM Z-Phe-Arg-AMC (Bachem #1-1160) as substrate in 50 mM MES, 2 mM EDTA, 0.05% Brij 35, 2.5 mM L-cysteine, pH 6.0, room temperature. • 5. Cathepsin S: • 0.5 nM recombinant human cathepsin S from E. coli (Calbiochem #219343), 20 μM Z-Val-Val-Arg-AMC (Bachem #1-1540) as substrate in 50 mM MES, 2 mM EDTA, 0.05% Brij 35, 2.5 mM L-cysteine, pH 6.0, room temperature. • The results of the in vitro determination are indicated in Table 1. The following abbreviations are used in Table 1: • The “Calpain activity” column, ++ stands for a calpain Ki (Ki(calpain)) of ≦40 nM and + means: 40 nM<Ki(Calpain)≦100 nM. • The “Sel. cat. B” column indicates the Ki(cathepsin B)/Ki(calpain) ratio. In this connection, ++ means a Ki(cathepsin B)/Ki(calpain) ratio of ≧30 and + means 10≦Ki(cathepsin B)/Ki(calpain)<30. • The “Sel. cat. K” column indicates the Ki(cathepsin K)/Ki(calpain) ratio. In this connection, ++ means a Ki(cathepsin K)/Ki(calpain) ratio of ≧30 and + means 10≦Ki(cathepsin K)/Ki(calpain)<30. • The “Sel. cat. L” column indicates the Ki(cathepsin L)/Ki(calpain) ratio. In this connection, ++ means a Ki(cathepsin L)/Ki(calpain) ratio of ≧50 and + means 30≦Ki(cathepsin L)/Ki(calpain)<50. • The “Sel. cat. S” column indicates the Ki(cathepsin S)/Ki(calpain) ratio. In this connection, ++ means a Ki(cathepsin S)/Ki(calpain) ratio of ≧100 and + means 50≦Ki(cathepsin S)/Ki(calpain)<100.

[4] = target: T4, cathepsin L isolated from human liver (Homo sapiens, UniProt P07711); experiment: Cathepsin L kinetic fluorescence enzyme inhibition assay; conditions: selectivity ratio versus calpain I
T4 construct: cathepsin L—isolated from human liver; purchased Calbiochem 219402; host or cells: human liver (tissue isolate)
T4 sequence (P07711 114-333): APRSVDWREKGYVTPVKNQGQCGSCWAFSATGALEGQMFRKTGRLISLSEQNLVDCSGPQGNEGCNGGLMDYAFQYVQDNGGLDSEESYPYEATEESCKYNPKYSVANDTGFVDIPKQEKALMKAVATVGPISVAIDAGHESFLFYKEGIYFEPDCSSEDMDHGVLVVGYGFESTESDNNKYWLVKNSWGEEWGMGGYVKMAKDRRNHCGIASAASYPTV
Outline: as §1

[5] = target: T5, cathepsin B isolated from human liver (Homo sapiens, UniProt P07858); experiment: Cathepsin B kinetic fluorescence enzyme inhibition assay; conditions: selectivity ratio versus calpain I
T5 construct: cathepsin B—isolated from human liver; purchased Calbiochem 219362; host or cells: human liver (tissue isolate)
Outline: as §1

| Structure (SMILES) | Ki [1] | Sel cat. K (Ki(cathepsin K)/Ki(calpain) ratio) [3] | Sel cat. B (Ki(cathepsin B)/Ki(calpain) ratio) [5] | Sel cat. S (Ki(cathepsin S)/Ki(calpain) ratio) [2] | Sel cat. L (Ki(cathepsin L)/Ki(calpain) ratio) [4] |
| --- | --- | --- | --- | --- | --- |
| NC(=O)C(=O)C(Cc1ccccc1)NC(=O)c1cccnc1-n1ccc(-c2ccccc2Cl)n1 (centres unmarked) [Example 54, N-(3-Amino-1-benzyl-2,3-dioxopropyl)-2-[3-(2-chlorophenyl)-1H-pyrazol-1-yl]nicotinamide] | 40 to 100 nM | ++ (Ki(cathepsin K)/Ki(calpain) ratio of ≧30) | ++ (Ki(cathepsin B)/Ki(calpain) ratio of ≧30) | ++ (Ki(cathepsin S)/Ki(calpain) ratio of ≧100) | ++ (Ki(cathepsin L)/Ki(calpain) ratio of ≧50) |
| NC(=O)C(=O)C(Cc1ccccc1)NC(=O)c1cccnc1-n1ccc(-c2cccs2)n1 (centres unmarked) [Example 55, N-(3-Amino-1-benzyl-2,3-dioxopropyl)-2-[3-(2-thienyl)-1H-pyrazol-1-yl]nicotinamide] | ≤ 40 nM | + (10≦Ki(cathepsin K)/Ki(calpain)<30) | + (10≦Ki(cathepsin B)/Ki(calpain)<30) | ++ (Ki(cathepsin S)/Ki(calpain) ratio of ≧100) | ++ (Ki(cathepsin L)/Ki(calpain) ratio of ≧50) |
| NC(=O)C(=O)C(Cc1ccccc1)NC(=O)c1cccnc1-n1ccc(-c2cccc(N3CCOCC3)c2)n1 (centres unmarked) [Example 58, N-(3-Amino-1-benzyl-2,3-dioxopropyl)-2-[3-(3-morpholin-4-ylphenyl)-1H-pyrazol-1-yl]nicotinamide] | ≤ 40 nM | + (10≦Ki(cathepsin K)/Ki(calpain)<30) | + (10≦Ki(cathepsin B)/Ki(calpain)<30) | ++ (Ki(cathepsin S)/Ki(calpain) ratio of ≧100) | ++ (Ki(cathepsin L)/Ki(calpain) ratio of ≧50) |

The next lines start with results.

| Ki [1] | Sel cat. K (Ki(cathepsin K)/Ki(calpain) ratio) [3] | Sel cat. B (Ki(cathepsin B)/Ki(calpain) ratio) [5] | Structure (SMILES) | Sel cat. S (Ki(cathepsin S)/Ki(calpain) ratio) [2] | Sel cat. L (Ki(cathepsin L)/Ki(calpain) ratio) [4] |
| --- | --- | --- | --- | --- | --- |
| 40 to 100 nM | + (10≦Ki(cathepsin K)/Ki(calpain)<30) | + (10≦Ki(cathepsin B)/Ki(calpain)<30) | NC(=O)C(=O)C(Cc1ccccc1)NC(=O)c1cccnc1-n1ccc(-c2ccc(F)cc2)n1 (centres unmarked) [Example 38, N-(3-Amino-1-benzyl-2,3-dioxopropyl)-2-[3-(4-fluorophenyl)-1H-pyrazol-1-yl]nicotinamide] | ++ (Ki(cathepsin S)/Ki(calpain) ratio of ≧100) | ++ (Ki(cathepsin L)/Ki(calpain) ratio of ≧50) |
| 40 to 100 nM | + (10≦Ki(cathepsin K)/Ki(calpain)<30) | + (10≦Ki(cathepsin B)/Ki(calpain)<30) | COc1ccc(-c2ccn(-c3ncccc3C(=O)NC(Cc3ccccc3)C(=O)C(N)=O)n2)cc1 (centres unmarked) [Example 48, N-(3-Amino-1-benzyl-2,3-dioxopropyl)-2-[3-(4-methoxyphenyl)-1H-pyrazol-1-yl]nicotinamide] | ++ (Ki(cathepsin S)/Ki(calpain) ratio of ≧100) | ++ (Ki(cathepsin L)/Ki(calpain) ratio of ≧50) |
| 40 to 100 nM | + (10≦Ki(cathepsin K)/Ki(calpain)<30) | + (10≦Ki(cathepsin B)/Ki(calpain)<30) | NC(=O)C(=O)C(Cc1ccc(Cl)cc1)NC(=O)c1cccnc1-n1ccc(-c2ccccc2)n1 (centres unmarked) [Example 50, N-[3-Amino-1-(4-chlorobenzyl)-2,3-dioxopropyl]-2-(3-phenyl-1H-pyrazol-1-yl)nicotinamide] | + (50≦Ki(cathepsin S)/Ki(calpain)<100) | + (30≦Ki(cathepsin L)/Ki(calpain)<50) |
| 40 to 100 nM | + (10≦Ki(cathepsin K)/Ki(calpain)<30) | + (10≦Ki(cathepsin B)/Ki(calpain)<30) | NC(=O)C(=O)C(Cc1ccccc1)NC(=O)c1cccnc1-n1ccc(-c2ccc(C(F)(F)F)cc2)n1 (centres unmarked) [Example 60, N-(3-Amino-1-benzyl-2,3-dioxopropyl)-2-{3-[4-(trifluoromethyl)phenyl]-1H-pyrazol-1-yl}nicotinamide] | + (50≦Ki(cathepsin S)/Ki(calpain)<100) | ++ (Ki(cathepsin L)/Ki(calpain) ratio of ≧50) |
